biological target: T1, human TRPM8 (Homo sapiens, UniProt Q7Z2W7); experiment: Luminescence readout assay for measuring intracellular calcium, icilin activation; type: cell-based; settings: CHO cells expressing human TRPM8, aequorin luminescence, 1 μM icilin activation; read-out: hTRPM8 IC50
T1 construct: expressed in transfected cells; host or cells: Chinese hamster ovary (CHO) cells, T-REx tetracycline-inducible system, co-transfected with aequorin
Procedure, shortened: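 The read-out was luminescence reporting intracellular calcium, recorded by a CCD-based luminometer. Compounds were preincubated for 2.5 min before agonist challenge with 1 μM icilin. Human TRPM8 was expressed in a stable T-REx CHO line, induced with 0.5 μg/mL tetracycline the day before.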

T1 sequence (Q7Z2W7 whole entry): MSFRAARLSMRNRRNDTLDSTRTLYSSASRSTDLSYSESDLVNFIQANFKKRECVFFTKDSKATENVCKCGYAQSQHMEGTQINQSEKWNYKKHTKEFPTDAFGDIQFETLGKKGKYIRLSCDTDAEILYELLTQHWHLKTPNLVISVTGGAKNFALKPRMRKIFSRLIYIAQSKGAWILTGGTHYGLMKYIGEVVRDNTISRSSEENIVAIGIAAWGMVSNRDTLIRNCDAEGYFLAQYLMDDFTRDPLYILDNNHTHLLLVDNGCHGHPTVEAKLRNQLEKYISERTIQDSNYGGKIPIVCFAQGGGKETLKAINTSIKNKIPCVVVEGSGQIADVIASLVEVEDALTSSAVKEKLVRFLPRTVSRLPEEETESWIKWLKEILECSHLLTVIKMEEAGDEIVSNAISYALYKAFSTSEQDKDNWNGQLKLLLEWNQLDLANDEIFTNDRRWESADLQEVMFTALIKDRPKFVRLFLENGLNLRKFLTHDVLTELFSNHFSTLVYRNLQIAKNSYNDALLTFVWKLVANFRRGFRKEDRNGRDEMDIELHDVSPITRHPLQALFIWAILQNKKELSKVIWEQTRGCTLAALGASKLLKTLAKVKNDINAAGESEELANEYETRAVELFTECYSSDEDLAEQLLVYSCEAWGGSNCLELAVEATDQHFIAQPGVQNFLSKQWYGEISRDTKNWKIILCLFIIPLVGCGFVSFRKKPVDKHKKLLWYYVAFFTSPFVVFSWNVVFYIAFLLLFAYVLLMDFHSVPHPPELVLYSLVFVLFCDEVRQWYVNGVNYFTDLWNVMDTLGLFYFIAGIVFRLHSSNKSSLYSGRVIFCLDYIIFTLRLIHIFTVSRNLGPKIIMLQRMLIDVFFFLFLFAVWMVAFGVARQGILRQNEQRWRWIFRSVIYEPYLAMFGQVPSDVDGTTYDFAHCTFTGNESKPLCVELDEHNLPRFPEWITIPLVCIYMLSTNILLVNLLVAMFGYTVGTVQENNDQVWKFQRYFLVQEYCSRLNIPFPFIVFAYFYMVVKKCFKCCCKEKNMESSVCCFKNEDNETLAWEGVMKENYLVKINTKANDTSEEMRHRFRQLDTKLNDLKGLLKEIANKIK

| Structure (SMILES) | IC50 [nM] |
| --- | --- |
| O=C(Cc1c[nH]cn1)N[C@@H](c1ccc(C(F)(F)F)cc1)c1ncccc1C(F)(F)F [Example 158, (S)-2-(1H-imidazol-4-yl)-N-((4-(trifluoromethyl)phenyl)(3-(trifluoromethyl)pyridin-2-yl)methyl)acetamide] | 1950 |
| Cc1ccc([C@H](NC(=O)c2ccc(=O)[nH]c2)c2ncccc2F)cc1C [Example 380, (S)-N-((3,4-dimethylphenyl)(3-fluoropyridin-2-yl)methyl)-6-oxo-1,6-dihydropyridine-3-carboxamide] | 245 |
| O=C(N[C@@H](c1ccc2ccccc2c1)c1ncccc1C(F)(F)F)c1ccc2cccnc2c1 [Example 15, (S)-N-(naphthalen-2-yl(3-(trifluoromethyl)pyridin-2-yl)methyl)quinoline-7-carboxamide] | 117 |
| O=C(N[C@@H](c1ccc(Cl)c(Cl)c1)c1ncccc1C(F)(F)F)c1ccc2cccnc2c1 [Example 10] | 20.5 |
| Cc1cc(C)n2nc(C(=O)N[C@@H](c3ccc(C(F)(F)F)cc3)c3ncccc3C(F)(F)F)cc2n1 [Example 149, (S)-5,7-dimethyl-N-((4-(trifluoromethyl)phenyl)(3-(trifluoromethyl)pyridin-2-yl)methyl)pyrazolo[1,5-a]pyrimidine-2-carboxamide] | 398 |
| CC(=O)Oc1ccc(C(=O)N[C@@H](c2ccc(C(F)(F)F)cc2)c2ncccc2C(F)(F)F)cc1 [Example 174, (S)-4-(((4-(trifluoromethyl)phenyl)(3-trifluoromethyl)methyl)carbamoyl)phenyl acetate] | 22.9 |
| O=C(N[C@@H](c1ccc(Cl)cc1)c1ncccc1C(F)(F)F)c1ccc2cccnc2c1 [Example 6, (S)-N-((4-chlorophenyl)(3-(trifluoromethyl)pyridin-2-yl)methyl)quinoline-7-carboxamide] | 73.9 |
| O=C(N[C@@H](c1ccc(C(F)(F)F)cc1)c1ccccn1)c1ccc2oc(=O)[nH]c2c1 [Example 361, (S)-2-oxo-N-(pyridin-2-yl(4-(trifluoromethyl)phenyl)methyl)-2,3-dihydrobenzo[d]oxazole-5-carboxamide] | 5.8 |
| O=C(N[C@@H](c1ccc(C(F)(F)F)cc1)c1ncccc1C(F)(F)F)c1ccc2cc[nH]c2n1 [Example 67, (S)-N-((4-(trifluoromethyl)phenyl)(3-(trifluoromethyl)pyridin-2-yl)methyl)-1H-pyrrolo[2,3-b]pyridine-6-carboxamide] | 40 |
| O=C(N[C@@H](c1ccc(C(F)(F)F)cc1)c1ncccc1F)c1ccc2c(Cl)ccnc2c1 [Example 120, (S)-4-chloro-N-((3-fluoropyridin-2-yl)(4-(trifluoromethyl)phenyl)methyl)quinoline-7-carboxamide 2,2,2-trifluoroacetate] | 59.4 |
| O=C(N[C@@H](c1ccc(C(F)(F)F)cc1)c1ncccc1C(F)(F)F)c1cncc(O)c1 [Example 58, (S)-5-hydroxy-N-((4-(trifluoromethyl)phenyl)(3-(trifluoromethyl)pyridin-2-yl)methyl)nicotinamide] | 63.9 |
| Cc1ccc(C(NC(=O)c2ccc(=O)[nH]c2)c2ccc(OC(F)(F)F)c(F)c2)nc1 (stereo not shown) [Example 424, N-((3-fluoro-4-(trifluoromethoxy)phenyl)(5-methylpyridin-2-yl)methyl)-6-oxo-1,6-dihydropyridine-3-carboxamide] | 92 |
| Cn1ccnc1C(=O)N[C@@H](c1ccc(C(F)(F)F)cc1)c1ncccc1C(F)(F)F [Example 146, (S)-1-methyl-N-((4-(trifluoromethyl)phenyl)(3-(trifluoromethyl)pyridin-2-yl)methyl)-1H-imidazole-2-carboxamide] | 180 |
| O=C(N[C@@H](c1ccc(OC(F)(F)F)c(F)c1)c1ncccc1F)c1ccc(=O)n(C[C@@H](O)C(F)(F)F)c1 [Example 409, N-((S)-(3-fluoro-4-(trifluoromethoxy)phenyl)(3-fluoropyridin-2-yl)methyl)-6-oxo-1-((R)-3,3,3-trifluoro-2-hydroxypropyl)-1,6-dihydropyridine-3-carboxamide] | 89.2 |
| Cn1cc(C(=O)N[C@@H](c2ccc(Cl)c(F)c2)c2ncccc2F)ccc1=O [Example 345, (S)-N-((4-chloro-3-fluorophenyl)(3-fluoropyridin-2-yl)methyl)-1-methyl-6-oxo-1,6-dihydropyridine-3-carboxamide] | 102 |
| O=C(N[C@@H](c1ccc(C(F)(F)F)cc1)c1c(F)cccc1F)c1ccc(=O)[nH]c1 [Example 258, (S)-N-((2,6-difluorophenyl)(4-(trifluoromethyl)phenyl)methyl)-6-oxo-1,6-dihydropyridine-3-carboxamide] | 40.7 |
| O=C(N[C@@H](c1ccc(C(F)(F)F)cc1)c1ncccc1C(F)(F)F)c1ccn2ccnc2c1 [Example 87, (S)-N-((4-(trifluoromethyl)phenyl)(3-(trifluoromethyl)pyridin-2-yl)methyl)imidazo[1,2-a]pyridine-7-carboxamide] | 8.9 |
| O=C1Cc2ccc(C(=O)N[C@@H](c3ccc(C(F)(F)F)cc3)c3ncccc3C(F)(F)F)cc2N1 [Example 69, (S)-2-oxo-N-((4-(trifluoromethyl)phenyl)(3-(trifluoromethyl)pyridin-2-yl)methyl)indoline-6-carboxamide] | 12.9 |

Results, then the compound that gave them:

| IC50 [nM] | Structure (SMILES) |
| --- | --- |
| 658 | Cc1cc([C@H](NC(=O)c2ccc(=O)[nH]c2)c2ncccc2F)cc(C(F)(F)F)c1 [Example 333, (S)-N-((3-fluoropyridin-2-yl)(3-methyl-5-(trifluoromethyl)phenyl)methyl)-6-oxo-l,6-dihydropyridine-3-carboxamide] |
| 41.4 | O=C(N[C@@H](c1ccc(C(F)(F)F)cc1)c1ncccc1C(F)(F)F)c1cccc(F)c1 [Example 227, (S)-3-fluoro-N-((4-(trifluoromethyl)phenyl)(3-(trifluoromethyl)pyridin-2-yl)methyl)benzamide] |
| 81 | COC(C)(C)C(=O)N[C@@H](c1ccc(C(F)(F)F)cc1)c1ncccc1C(F)(F)F [Example 240, (S)-2-methoxy-2-methyl-N-((4-(trifluoromethyl)phenyl)(3-(trifluoromethyl)pyridin-2-yl)methyl)propanamide] |
| 20.1 | COc1ncccc1C(=O)N[C@@H](c1ccc(C(F)(F)F)cc1)c1ncccc1F [Example 47, (S)-N-((3-fluoropyridin-2-yl)(4-(trifluoromethyl)phenyl)methyl)-2-methoxynicotinamide] |
| 10.2 | O=C(N[C@@H](c1ccc(C(F)(F)F)cc1)c1ncccc1F)c1ccn2ccnc2c1 [Example 86, (S)-N-((3-fluoropyridin-2-yl)(4-(trifluoromethyl)phenyl)methyl)imidazo[1,2-a]pyridine-7-carboxamide] |
| 29.7 | O=C(N[C@@H](c1ccc(C(F)(F)F)cc1)c1ncccc1F)c1ccccc1 [Example 180, (S)-N-((3-fluoropyridin-2-yl)(4-(trifluoromethyl)phenyl)methyl)benzamide] |
| 25.9 | Cc1cccnc1[C@@H](NC(=O)c1ccc2[nH]c(=O)oc2c1)c1ccc(C(F)(F)F)cc1 [Example 313, (S)-N-((3-methylpyridin-2-yl)(4-(trifluoromethyl)phenyl)methyl)-2-oxo-2,3-dihydrobenzo[d]oxazole-6-carboxamide] |
| 12.4 | CCc1cccnc1[C@@H](NC(=O)c1ccc(=O)[nH]c1)c1ccc(C(F)(F)F)cc1 [Example 430, (S)—N-((3-Ethylpyridin-2-yl)(4-(trifluoromethyl)phenyl)methyl)-6-oxo-1,6-dihydropyridine-3-carboxamide] |
| 30.3 | O=C(N[C@@H](c1ccc(C(F)(F)F)cc1)c1ncccc1C(F)(F)F)c1ccc2cn[nH]c2c1 [Example 175, (S)-N-((4-(trifluoromethyl)phenyl)(3-(trifluoromethyl)pyridin-2-yl)methyl)-1H-indazole-6-carboxamide] |
| 90.5 | O=C(N[C@@H](c1ccc(C(F)(F)F)cc1)c1ncccc1C(F)(F)F)c1ccccc1I [Example 118, (S)-2-iodo-N-((4-(trifluoromethyl)phenyl)(3-(trifluoromethyl)pyridin-2-yl)methyl)benzamide] |
| 39.6 | O=C(N[C@@H](c1ccc(C(F)(F)F)cc1)c1ncccc1C(F)(F)F)c1ccc(F)cc1 [Example 183, (S)-4-fluoro-N-((4-(trifluoromethyl)phenyl)(3-(trifluoromethyl)pyridin-2-yl)methyl)benzamide] |
| 965 | O=C(N[C@@H](c1ccc(F)c(F)c1)c1ncccc1F)c1ccc(=O)[nH]c1 [Example 331, (S)-N-((3,4-difluorophenyl)(3-fluoropyridin-2-yl)methyl)-6-oxo-1,6-dihydropyridine-3-carboxamide] |
| 89.4 | O=C(N[C@@H](c1ccc(C(F)(F)F)cc1)c1ncccc1F)c1ccc(=O)n(CC(F)(F)F)c1 [Example 372, (S)-N-((3-fluoropyridin-2-yl)(4-(trifluoromethyl)phenyl)methyl)-6-oxo-1-(2,2,2-trifluoroethyl)-1,6-dihydropyridine-3-carboxamide] |
| 176 | O=C(N[C@@H](c1ccc(C(F)(F)F)cc1)c1ncccc1F)c1ccc2ccc(=O)[nH]c2c1 [Example 125, (S)-N-((3-fluoropyridin-2-yl)(4-(trifluoromethyl)phenyl)methyl)-2-oxo-1,2-dihydroquinoline-7-carboxamide] |
| 147 | CS(=O)(=O)c1ccc(C(=O)N[C@@H](c2ccc(C(F)(F)F)cc2)c2ncccc2F)cc1 [Example 217, (S)-N-((3-fluoropyridin-2-yl)(4-(trifluoromethyl)phenyl)methyl)-4-(methylsulfonyl)benzamide] |

same assay, conditions: hTRPM8 IC50, CHO cells expressing human TRPM8, aequorin luminescence, 1 μM icilin activation

| Structure (SMILES) | IC50 [nM] |
| --- | --- |
| Cn1nc(C(=O)N[C@@H](c2ccc(C(F)(F)F)cc2)c2ncccc2C(F)(F)F)c2ccccc21 [Example 215, (S)-1-methyl-N-((4-(trifluoromethyl)phenyl)(3-(trifluoromethyl)pyridin-2-yl)methyl)-1H-indazole-3-carboxamide] | 84.5 |
